Assay [1] concerns MX-1 or MAXF401 human breast cancer xenografts. The experiment in a line: Tumor volume growth in mice bearing human breast cancer xenografts; drug effect DE(t) and time point of maximum impact (TPMI) from Gompertzian/polynomial fits. It counts as in vivo. The conditions noted are these: for maximum drug effect, DE(TPMI): dimensionless; for elapsed time to zero crossing of derivative DE'(t) (TPMI) / elapsed time after start of treatment to relative maximum in DE(t) (TPMI): pooled data, 14 days on/7 off; for elapsed time after start of treatment to relative maximum in DE(t) (TPMI): first cycle. The text has this: The untreated series of measurements reveal the progression of the disease without treatment, and therefore it is not obtained from a patient to be treated using the method. Typically the untreated series of measurements describes the progression of the disease in one or more historical cases, or test subjects, or both. For example, the untreated series of measurements describes the progression of tumor volume with time in breast cancer victims who are not treated for some number of weeks. In the illustrated embodiment, described further in later sections, the untreated series of measurements describe tumor volume in mice bearing MX-1 or MAXF401 human breast cancer xenografts approximately every two days for about seven weeks (50 days). FIG. 2A is a graph 210 that illustrates, as solid-filled circles 216, pooled measurements of tumor volume growth for untreated breast cancer in xenograft models (MX-1). Untreated tumor growth is sometimes called “naïve growth.” The horizontal axis 212 indicates the passage of time in days since an initial time. The vertical axis 214 indicates the tumor volume in cubic millimeters (mm^3). The solid trace 218 represents a model fit to the data as described in more detail below.
In the illustrated embodiment, described further in later sections, two treated series of measurements describe tumor volume in mice bearing MX-1 or MAXF401 human breast cancer xenografts approximately every two days for about seven weeks (50 days) during treatment. The treatment involves administering the drug XELODA according to the standard protocol: a 14-day duration of administering the drug at a particular dose, followed by a 7 day hiatus in administering the drug. One treatment uses a lower dose of 1.5 millimoles (mmol) per kilogram (kg) of victim weight per day (mmol/kg/day). A second treatment uses a higher dose of 2.25 mmol/kg/day. Each of the two treated series describes the progression of tumor volume with time in the treated victim of the disease, and includes an initial measurement of tumor volume at or near when the treatment was started, for example just before the first injection of the drug. The initial measurement is used in a later step to relate a treated series to the untreated series, which typically occur in different subjects.
In step 130, a temporal series of effectiveness values is determined. Any method may be used to determine an effectiveness value. In the illustrated embodiment, each effectiveness value indicates the ratio between the rate of change of the physical property for the treated disease and the rate of change for the untreated disease at a corresponding time. For purposes of illustration, it is assumed that the temporal progression of the physical property for the untreated disease is represented by the function Pu(t) and that its rate of change is given by its first time derivative Pu′(t). Similarly, it is assumed that the temporal progression of the physical property for the treated disease is represented by the function Pt(t) and that its rate of change is given by its first time derivative Pt′(t). It is further assumed that the temporal progression of the ratio is represented by the function R(t) and is given by Equation 1 R(t)=Pt′(t)/Pu′(t) (1). In other embodiments, a different definition of ratio is used. For example, in some embodiments the ratio given by the reciprocal of R(t) is used. In the illustrated embodiments, R is the ratio of two physical properties with the same units and is therefore dimensionless.
An effectiveness parameter is often defined that indicates the ratio R(t) but offers a more useful description of the effect of a treatment than the ratio itself. […]
(In general: In xenograft studies the graft and the host belong to different species.)

The test system is the same in assay [2]. The conditions noted are these: 6 weeks, CDS (days on/off) 14/7, 5/2, 2/5, 7/7, 4 dose levels plus control; Yanagisawa, Proc. AACR 2004; cited from earlier work.

For `CCCCCOC(=O)Nc1nc(=O)n([C@@H]2O[C@H](C)[C@@H](O)[C@H]2O)cc1F` [capecitabine], the “maximum drug effect, DE(TPMI)” value is recorded as “about 0.8” in assay [1] (7-day duration/7-day hiatus, high dose 2.5 mmol/kg/day) and “about 0.65” in assay [1] (standard protocol, 14-day duration/7-day hiatus). For the same molecule, in assay [1] (follow-up experiment, higher daily dose with 7 on/7 off), the “maximal DE, 7 on/7 off CDS compared with 14 on/7 off CDS” value is “increased maximal DE”. Besides, the figures for the “elapsed time to zero crossing of derivative DE'(t) (TPMI)” value in assay [1] (higher dose 2.25 mmol/kg/day) and in assay [1] (lower dose 1.5 mmol/kg/day) were 8.3 days and 10.1 days, respectively. Besides, the “elapsed time after start of treatment to relative maximum in DE(t) (TPMI)” value in assay [1] (higher dose 2.25 mmol/kg/day) came to 8 days; in assay [1] (lower dose 1.5 mmol/kg/day), 10 days. In assay [1] (pooled mice, dose levels analyzed (1.5 and 2.25 mmol/kg/day), 14/7 CDS), the “time point of maximum impact (TPMI), averaged, days into therapy” value fell in the range of 8.3 to 10.1 days. In addition, the “effectiveness of CDS regimens” value in assay [2] was “all were effective at an appropriate dose”.
